Results as given in US12552772B2, “2-pyrazole anilines and related analogs for inhibiting YAP/TAZ-TEAD” (KATHOLIEKE UNIVERSITEIT LEUVEN, priority 2021, dated 2026).

Assays:
Type in all cases: cell-based
[1] = tested on: NCI-H226; assay: Mesothelioma cell line proliferation assay (ATPlite), NCI-H226; settings: Homo sapiens, 144 h; NCI-H226 cells, 6 days, ATPlite cell viability
Experimental: (§1) Mesothelioma cell lines, NCI-H226 and NCI-H2052 (all sourced from the ATCC cell culture collection) are plated in 96-well plates (Corning® 96 Well White Polystyrene Microplate clear flat bottom, white polystyrene (TC-Treated)), at 1500 cells/well in full medium (RPMI 1640 ATCC modification with L-glutamine, HEPES, Phenol Red, Sodium Pyruvate, High glucose, Low sodium bicarbonate and 10% fetal bovine serum). Cells are incubated overnight at 37° C. in an incubator with 5% CO2. Then compounds, dissolved in DMSO, are added in dose-response. Cells are incubated with compound dilutions for another 6 days at 37° C. in an incubator with 5% CO2. Cell viability is quantitated using the ATPlite kit (Perkin-Elmer) and the luminescence is read-out using an Envision instrument (Perkin-Elmer). The amount of relative light units produced using the ATPlite kit is used to calculated percent of inhibition.
(§2) The activities of example compounds tested are depicted in the table below. The activity ranges A, B and C refer to EC50 values in the mesothelioma cell line proliferation assay as described as follows: “A”: EC50<1 μM; “B”: 1 μM s EC50≤10 μM and “C”: EC50>10 μM. NT: not tested.

[2] = tested on: NCI-H2052; assay: Mesothelioma cell line proliferation assay (ATPlite), NCI-H2052; settings: Homo sapiens, NCI-H2052, 144 h, NCI-H2052 cells, 6 days, ATPlite cell viability
Experimental: as §1, §2

[3] = tested on: YAP/TAZ-TEAD transcription; assay: Reporter gene assay for measuring the inhibition of YAP/TAZ-TEAD transcription (TEAD-responsive element luciferase reporter in Hek293T cells); settings: Homo sapiens, HEK-293T, 24 hours incubation
Method in brief: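 Percent inhibition, scaled between vehicle (0%) and a positive control inhibitor (100%), came from SteadyLite luciferase signal after 24 h compound exposure at 37 °C/5% CO2. Cells: Hek293T transiently carrying a TEAD-responsive luciferase reporter; EC50 derived.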

Row | Compound | EC50 [1] [nM] | EC50 [2] [nM] | EC50 [3] [nM]
1 | CNS(=O)(=O)CCNc1cc(-c2ccccc2)cc(-c2ccn(Cc3cccnc3)n2)c1 [compound 052, N-methyl-2-((5-(1-(pyridin-3-ylmethyl)-1H-pyrazol-3-yl)-[1,1′-biphenyl]-3-yl)amino)ethane-1-sulfonamide] | > 10000 | > 10000 | 1000 to 20000
2 | C=CC(=O)Nc1cc(-c2ccccc2)cc(-c2ccn(Cc3cccnc3)n2)c1 [compound 083, N-(5-(1-(pyridin-3-ylmethyl)-1H-pyrazol-3-yl)-[1,1′-biphenyl]-3-yl)acrylamide] | < 1000 | 1000 to 10000 | < 1000
3 | CNS(=O)(=O)CCNc1cnc(-c2ccc(F)cc2)cc1-c1ccn(C(F)F)n1 [compound 131, 2-((4-(1-(difluoromethyl)-1H-pyrazol-3-yl)-6-(4-fluorophenyl)pyridin-3-yl)amino)-N-methylethane-1-sulfonamide] | 1000 to 10000 | > 10000 | < 1000
4 | CNS(=O)(=O)CCNc1ccc(-c2ccc(F)cc2)nc1-c1ccn(C(F)F)n1 [compound 132, 2-((2-(1-(difluoromethyl)-1H-pyrazol-3-yl)-6-(4-fluorophenyl)pyridin-3-yl)amino)-N-methylethane-1-sulfonamide] | > 10000 | > 10000 | < 1000
5 | C=CC(=O)NCc1cc(-c2ccccc2)cc(-c2ccn(C)n2)c1 [compound 137, N-((5-(1-methyl-1H-pyrazol-3-yl)-[1,1′-biphenyl]-3-yl)methyl)acrylamide] | < 1000 | > 10000 | < 1000
6 | C=CC(=O)NCc1ccc(-c2ccc(C(F)(F)F)cc2)cc1-c1ccn(C)n1 [compound 140, N-((3-(1-methyl-1H-pyrazol-3-yl)-4′-(trifluoromethyl)-[1,1′-biphenyl]-4-yl)methyl)acrylamide] | < 1000 | < 1000 | < 1000
7 | C=CC(=O)NCc1ccc(-c2cccc(C(F)(F)F)c2)cc1-c1ccn(C)n1 [compound 141, N-((3-(1-methyl-1H-pyrazol-3-yl)-3′-(trifluoromethyl)-[1,1′-biphenyl]-4-yl)methyl)acrylamide] | < 1000 | < 1000 | < 1000
8 | C=CC(=O)NCc1ccc(-c2cccc(F)c2)cc1-c1ccn(C)n1 [compound 142, N-((3′-fluoro-3-(1-methyl-1H-pyrazol-3-yl)-[1,1′-biphenyl]-4-yl)methyl)acrylamide] | < 1000 | < 1000 | < 1000
9 | C=CC(=O)NCc1ccc(-c2ccc(F)cc2)cc1-c1ccn(C)n1 [compound 143, N-((4′-fluoro-3-(1-methyl-1H-pyrazol-3-yl)-[1,1′-biphenyl]-4-yl)methyl)acrylamide] | < 1000 | < 1000 | < 1000
10 | C=CC(=O)NCc1ccc(-c2ccc(F)c(F)c2)cc1-c1ccn(C)n1 [compound 144, N-((3′,4′-difluoro-3-(1-methyl-1H-pyrazol-3-yl)-[1,1′-biphenyl]-4-yl)methyl)acrylamide] | < 1000 | < 1000 | < 1000
11 | C=CC(=O)NCc1ccc(-c2ccc(F)cc2F)cc1-c1ccn(C)n1 [compound 145, N-((2′,4′-difluoro-3-(1-methyl-1H-pyrazol-3-yl)-[1,1′-biphenyl]-4-yl)methyl)acrylamide] | < 1000 | < 1000 | < 1000
12 | C=CC(=O)NCc1ccc(-c2ccc(F)cc2)cc1-c1ccn(CCOC)n1 [compound 149, N-((4′-fluoro-3-(1-(2-methoxyethyl)-1H-pyrazol-3-yl)-[1,1′-biphenyl]-4-yl)methyl)acrylamide] | < 1000 | < 1000 | < 1000
13 | C=CC(=O)NCc1ccc(-c2ccc(F)cc2)cc1-c1ccn(CC2CC2)n1 [compound 153, N-((3-(1-(cyclopropylmethyl)-1H-pyrazol-3-yl)-4′-fluoro-[1,1′-biphenyl]-4-yl)methyl)acrylamide] | < 1000 | < 1000 | < 1000
14 | C=CC(=O)NCc1ccc(-c2ccc(Cl)cc2)cc1-c1ccn(C)n1 [compound 157, N-((4′-chloro-3-(1-methyl-1H-pyrazol-3-yl)-[1,1′-biphenyl]-4-yl)methyl)acrylamide] | < 1000 | < 1000 | < 1000
15 | C=CC(=O)NCc1ccc(-c2ccc(F)cc2)cc1-c1cc[nH]n1 [compound 161, N-((4′-fluoro-3-(1H-pyrazol-3-yl)-[1,1′-biphenyl]-4-yl)methyl)acrylamide] | < 1000 | < 1000 | < 1000
16 | C=CC(=O)NCc1ccc(-c2ccc(F)cc2)cc1-c1cnn(C)c1 [compound 162, N-((4′-fluoro-3-(1-methyl-1H-pyrazol-4-yl)-[1,1′-biphenyl]-4-yl)methyl)acrylamide] | < 1000 | < 1000 | < 1000
17 | C=CC(=O)NCc1ccc(-c2ccc(F)cc2)cc1-c1ccccn1 [compound 165, N-((4′-fluoro-3-(pyridin-2-yl)-[1,1′-biphenyl]-4-yl)methyl)acrylamide] | < 1000 | < 1000 | < 1000
18 | C=CC(=O)NCc1ccc(-c2ccc(F)cc2)cc1-c1ccn(C2CC2)n1 [compound 166, N-((3-(1-cyclopropyl-1H-pyrazol-3-yl)-4′-fluoro-[1,1′-biphenyl]-4-yl)methyl)acrylamide] | < 1000 | < 1000 | < 1000
19 | C=CC(=O)NCc1ccc(-c2ccc(C(F)(F)F)cc2)cc1-c1ccn(C2CC2)n1 [compound 167, N-((3-(1-cyclopropyl-1H-pyrazol-3-yl)-4′-(trifluoromethyl)-[1,1′-biphenyl]-4-yl)methyl)acrylamide] | 1000 to 10000 | < 1000 | < 1000
20 | C=CC(=O)NCc1cc(-c2ccc(F)cc2)cc(-c2ccn(C3CC3)n2)c1 [compound 169, N-((5-(1-cyclopropyl-1H-pyrazol-3-yl)-4′-fluoro[1,1′-biphenyl]-3-yl)methyl)acrylamide] | < 1000 | 1000 to 10000 | < 1000
21 | C=CC(=O)NCc1ccc(-c2ccc(F)cc2)cc1-c1ccn(C(F)F)n1 [compound 170, N-((3-(1-(difluoromethyl)-1H-pyrazol-3-yl)-4′-fluoro-[1,1′-biphenyl]-4-yl)methyl)acrylamide] | < 1000 | < 1000 | < 1000
22 | C=CC(=O)NCc1ccc(-c2ccc(C(F)(F)F)cc2)cc1-c1ccn(C(F)F)n1 [compound 172, N-((3-(1-(difluoromethyl)-1H-pyrazol-3-yl)-4′-(trifluoromethyl)-[1,1′-biphenyl]-4-yl)methyl)acrylamide] | < 1000 | < 1000 | < 1000
23 | C=CC(=O)NCc1cc(-c2ccc(F)cc2)cc(-c2ccn(C(F)F)n2)c1 [compound 174, N-((5-(1-(difluoromethyl)-1H-pyrazol-3-yl)-4′-fluoro-[1,1′-biphenyl]-3-yl)methyl)acrylamide] | < 1000 | 1000 to 10000 | < 1000
24 | C=CC(=O)NCc1ccc(-c2ccc(F)cc2)cc1-c1cc(C)n(C)n1 [compound 176, N-((3-(1,5-dimethyl-1H-pyrazol-3-yl)-4′-fluoro-[1,1′-biphenyl]-4-yl)methyl)acrylamide] | < 1000 | < 1000 | < 1000
25 | C=C(F)C(=O)NCc1ccc(-c2ccc(C(F)(F)F)cc2)cc1-c1ccn(C)n1 [compound 177, 2-fluoro-N-((3-(1-methyl-1H-pyrazol-3-yl)-4′-(trifluoromethyl)-[1,1′-biphenyl]-4-yl)methyl)acrylamide] | < 1000 | < 1000 | < 1000
26 | C=CC(=O)NCc1ccc([C@H]2CC[C@@H](C(F)(F)F)CC2)cc1-c1ccn(C)n1 [compound 179, cis-N-(2-(1-methyl-1H-pyrazol-3-yl)-4-(4-(trifluoromethyl)cyclohexyl)benzyl)acrylamide] | < 1000 | < 1000 | < 1000
27 | C=CC(=O)NCc1ccc(C2CCC(F)(F)CC2)cc1-c1ccn(C)n1 [compound 180, N-(4-(4,4-difluorocyclohexyl)-2-(1-methyl-1H-pyrazol-3-yl)benzyl)acrylamide] | < 1000 | < 1000 | < 1000
28 | C=CC(=O)NCc1ccc(N2CCC(F)(F)CC2)cc1-c1ccn(C)n1 [compound 182, N-(4-(4,4-difluoropiperidin-1-yl)-2-(1-methyl-1H-pyrazol-3-yl)benzyl)acrylamide] | < 1000 | < 1000 | < 1000
29 | C=CC(=O)NCc1ccc(-c2ccc(F)cc2)cc1-c1cn(C)nn1 [compound 184, N-((4′-fluoro-3-(1-methyl-1H-1,2,3-triazol-4-yl)-[1,1′-biphenyl]-4-yl)methyl)acrylamide] | < 1000 | < 1000 | < 1000
